Read-outs that look alike come from different tables or passages of the source.
Columns and labels:
Format in all cases: in vivo
[1] = test system: Pharbitis purpurea (PHBPU); experiment: Post-emergence herbicidal action against PHBPU
Summary of the method: (§1)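 Doses of 320 g/ha or lower, suffixes a, b and c marking different dosages, were applied post-emergence at the one-leaf stage in 600 l/ha water with 0.5% additive. Damage was assessed visually after about 3 weeks in the greenhouse.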

[2] = test system: Polygonum convolvulus (POLCO); experiment: Post-emergence herbicidal action against POLCO
Summary of the method: as §1

[3] = test system: Amaranthus retroflexus (AMARE); experiment: Post-emergence herbicidal action against AMARE; settings: 320 g/ha, visual rating about 3 weeks after treatment
Summary of the method: as §1

Oryza sativa (ORYSA) [4] = settings: pre-emergence, 80 g/ha, crop plant compatibility, in comparison to untreated controls
Summary of the method: (§2)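 Crop injury rated visually in percent against untreated plants roughly 3 weeks after treatment (0% no effect, 100% plants dead). Compounds, as WP or EC with 0.5% additive in 600 l/ha water, were applied to the covering soil right after sowing; greenhouse growth. Suffixes a, b, c denote different dosages.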

Zea mays (ZEAMX) [5] = settings: pre-emergence, 80 g/ha, crop plant compatibility, in comparison to untreated controls
Summary of the method: as §2

[6] = test system: Digitaria sanguinalis (DIGSA); experiment: Pre-emergence herbicidal action against DIGSA
Summary of the method: (§3)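 Application rates ran to 320 g/ha or lower, with several dosages tested on the same weeds. The compound, as wettable powder or emulsion concentrate, is sprayed pre-emergence onto soil over sown seeds; greenhouse growth follows, and effect is rated visually after roughly 3 weeks.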

Viola tricolor (VIOTR) [7] = experiment: Post-emergence herbicidal action against VIOTR
Summary of the method: as §1

[8] = test system: Verconica persica (VERPE); experiment: Pre-emergence herbicidal action against VERPE; settings: dosage 320 g/ha
Summary of the method: as §3

[9] = test system: Amaranthus retroflexus (AMARE); experiment: Pre-emergence herbicidal action against AMARE; settings: visual scoring after about 3 weeks vs untreated controls
Summary of the method: as §3

[10] = test system: Matricaria inodora (MATIN); experiment: Post-emergence herbicidal action against MATIN; settings: dosage 320 g/ha
Summary of the method: as §1

[11] = test system: Verconica persica (VERPE); experiment: Post-emergence herbicidal action against VERPE
Summary of the method: as §1

Oryza sativa (ORYSA) [12] = settings: crop plant compatibility
Summary of the method: (§4)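 Test crops were treated 2 to 3 weeks after sowing, once they reached one leaf, by spraying compound in water with 0.5% additive at 600 l/ha. Visual scoring compared them with untreated controls roughly 3 weeks on, and appendices a, b and c denote different doses.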

Zea mays (ZEAMX) [13] = settings: crop plant compatibility, 80 g/ha, effect vs untreated controls
Summary of the method: as §4

[14] = test system: Echinochloa crus-galli (ECHCG); experiment: Pre-emergence herbicidal action against ECHCG; settings: dosage 320 g/ha
Summary of the method: as §3

[15] = test system: Echinochloa crus-galli (ECHCG); experiment: Post-emergence herbicidal action against ECHCG
Summary of the method: as §1

[16] = test system: Digitaria sanguinalis (DIGSA); experiment: Post-emergence herbicidal action against DIGSA; settings: visual rating about 3 weeks after treatment
Summary of the method: as §1

Setaria viridis (SETVI) [17] = experiment: Pre-emergence herbicidal action against SETVI
Summary of the method: as §3

[18] = test system: Polygonum convolvulus (POLCO); experiment: Pre-emergence herbicidal action against POLCO; settings: dosage 320 g/ha
Summary of the method: as §3

[19] = test system: Matricaria inodora (MATIN); experiment: Pre-emergence herbicidal action against MATIN; settings: dosage 320 g/ha
Summary of the method: as §3

Viola tricolor (VIOTR) [20] = experiment: Pre-emergence herbicidal action against VIOTR; settings: 320 g/ha, Viola tricolor
Summary of the method: as §3

[21] = test system: Alopecurus myosuroides (ALOMY); experiment: Post-emergence herbicidal action against ALOMY; settings: visual rating about 3 weeks after treatment vs untreated controls (100% = plants have died, 0% = like control plants)
Summary of the method: as §1

Avena fatua (AVEFA) [22] = experiment: Pre-emergence herbicidal action against AVEFA; settings: 320 g/ha, visual scoring after about 3 weeks vs untreated controls
Summary of the method: as §3

Lolium rigidum (LOLRI) [23] = experiment: Pre-emergence herbicidal action against LOLRI; settings: dosage 320 g/ha
Summary of the method: as §3

[24] = test system: Alopecurus myosuroides (ALOMY); experiment: Pre-emergence herbicidal action against ALOMY; settings: scored visually after about 3 weeks, 100% = plants have died
Summary of the method: as §3

Setaria viridis (SETVI) [25] = experiment: Post-emergence herbicidal action against SETVI
Summary of the method: as §1

[26] = test system: Abutilon theophrasti (ABUTH); experiment: Post-emergence herbicidal action against ABUTH; settings: 320 g/ha, visual rating about 3 weeks after treatment vs untreated controls (100% = plants have died, 0% = like control plants)
Summary of the method: as §1

Lolium rigidum (LOLRI) [27] = experiment: Post-emergence herbicidal action against LOLRI; settings: dosage 320 g/ha
Summary of the method: as §1

Avena fatua (AVEFA) [28] = experiment: Post-emergence herbicidal action against AVEFA; settings: 320 g/ha, visual rating about 3 weeks after treatment
Summary of the method: as §1

[29] = test system: Pharbitis purpurea (PHBPU); experiment: Pre-emergence herbicidal action against PHBPU
Summary of the method: as §3

[30] = 80 g/ha, effect in comparison to untreated controls
[31] = 80 g/ha, visual scoring after about 3 weeks vs untreated controls

Compound | Post-emergence action against PHBPU in % ([1]; dosage 80 g/ha) [%] | Post-emergence action against PHBPU in % ([1]; dosage 320 g/ha) [%] | Pre-emergence action against ORYSA in % (Oryza sativa (ORYSA) [4]) [%] | Pre-emergence action against DIGSA in % ([6]; dosage 320 g/ha) [%] | Post-emergence action against VIOTR in % (Viola tricolor (VIOTR) [7]; 80 g/ha) [%] | Pre-emergence action against VERPE in % [8] [%] | Pre-emergence action against AMARE in % ([9]; 320 g/ha) [%] | Post-emergence action against VERPE in % ([11]; 320 g/ha, VERPE) [%] | Post-emergence action against ORYSA in % (Oryza sativa (ORYSA) [12]; [30]) [%] | Pre-emergence action against ECHCG in % [14] [%] | Post-emergence action against ECHCG in % ([15]; dosage 80 g/ha) [%] | Post-emergence action against DIGSA in % ([16]; 80 g/ha) [%] | Pre-emergence action against SETVI in % (Setaria viridis (SETVI) [17]; dosage 320 g/ha) [%] | Pre-emergence action against POLCO in % [18] [%] | Pre-emergence action against MATIN in % [19] [%] | Pre-emergence action against DIGSA in % [6, 31] [%] | Pre-emergence action against VIOTR in % (Viola tricolor (VIOTR) [20]) [%] | Post-emergence action against ALOMY in % ([21]; 80 g/ha) [%] | Pre-emergence action against AMARE in % ([9]; 80 g/ha) [%] | Pre-emergence action against AVEFA in % (Avena fatua (AVEFA) [22]) [%] | further results
COC(=O)CCOC(=O)COc1nn(-c2ccccn2)c(-c2ccc(Cl)nc2)c1Br [Example I-246] | 80 | 80 | 0 | 90 | 80 | 80 | 90 | 80 | 0 | – | – | – | – | – | – | – | – | – | – | – | Post-emergence action against POLCO in % ([2]; dosage 320 g/ha): 80%; Post-emergence action against AMARE in % [3]: 80%; Pre-emergence action against ZEAMX in % (Zea mays (ZEAMX) [5]): 20%; Post-emergence action against VIOTR in % (Viola tricolor (VIOTR) [7]; 320 g/ha): 80%; Post-emergence action against MATIN in % [10]: 80%; Post-emergence action against ORYSA in % (Oryza sativa (ORYSA) [12]; 320 g/ha, effect in comparison to untreated controls): 10%; Post-emergence action against ZEAMX in % (Zea mays (ZEAMX) [13]): 10%
CCOC(=O)COc1nn(-c2ccccn2)c(-c2ccc(F)nc2)c1I [Example I-121] | – | – | 0 | 100 | 80 | 100 | 100 | – | 0 | 100 | 80 | 80 | 100 | 100 | 80 | 100 | 100 | 80 | 100 | 90 | Post-emergence action against POLCO in % ([2]; dosage 80 g/ha): 80%; Pre-emergence action against LOLRI in % (Lolium rigidum (LOLRI) [23]): 100%; Pre-emergence action against ALOMY ([24]; 320 g/ha): 100%; Post-emergence action against VERPE in % ([11]; dosage 80 g/ha): 80%; Post-emergence action against ORYSA in % (Oryza sativa (ORYSA) [12]; 20 g/ha, effect vs untreated controls): 0%
C#CCOC(=O)COc1nn(-c2ccccn2)c(-c2ccc(F)nc2)c1Br [Example I-360] | 80 | 80 | 10 | 100 | – | 90 | 100 | 80 | 20 | 100 | 80 | 80 | 100 | 100 | 90 | 90 | 100 | 90 | 90 | 90 | Post-emergence action against ECHCG in % ([15]; dosage 320 g/ha): 80%; Post-emergence action against SETVI in % (Setaria viridis (SETVI) [25]; dosage 80 g/ha): 80%; Post-emergence action against SETVI in % (Setaria viridis (SETVI) [25]; dosage 320 g/ha): 80%; Post-emergence action against DIGSA in % ([16]; 320 g/ha): 80%; Pre-emergence action against SETVI in % (Setaria viridis (SETVI) [17]; dosage 80 g/ha): 90%; Post-emergence action against ABUTH in % [26]: 80%; Post-emergence action against LOLRI in % (Lolium rigidum (LOLRI) [27]): 90%; Post-emergence action against ALOMY in % ([21]; 320 g/ha): 90%; Post-emergence action against AVEFA in % (Avena fatua (AVEFA) [28]): 80%; Pre-emergence action against LOLRI in % (Lolium rigidum (LOLRI) [23]): 100%; Pre-emergence action against PHBPU in % ([29]; dosage 80 g/ha): 80%; Pre-emergence action against PHBPU in % ([29]; dosage 320 g/ha): 90%; Pre-emergence action against ALOMY ([24]; 80 g/ha): 100%; Pre-emergence action against ALOMY ([24]; 320 g/ha): 100%; Post-emergence action against VERPE in % ([11]; dosage 80 g/ha): 80%
